Reference: the NIST ThermoML archive (doi:10.1016/j.jct.2008.10.002)

How the values were obtained:
[1] = xn = mol fraction of the nth substance listed; conditions: 101.3 kPa, Liquid, Vibrating tube method
[2] = molar heat capacity at constant pressure; xn = mol fraction of the nth substance listed; conditions: 101.3 kPa, Liquid, Small sample (50 mg) DSC
[3] = excess molar enthalpy (molar enthalpy of mixing); xn = mol fraction of the nth substance listed; conditions: 303.15 K, 101.3 kPa, Liquid

CCCCn1cc[n+](C)c1.O=S(=O)([O-])C(F)(F)F [1-butyl-3-methylimidazolium trifluoromethanesulfonate] + O
Conditions | mass density, [1] [kg/m3] | molar heat capacity at constant pressure, [2] [J/K/mol]
293.15 K, x1 = 0.0496 | 1119.8 | 98.5
293.15 K, x1 = 0.1012 | 1176.7 | –
293.15 K, x1 = 0.1415 | 1202.8 | 131.9
293.15 K, x1 = 0.197 | 1227.4 | –
293.15 K, x1 = 0.2965 | 1252.5 | –
293.15 K, x1 = 0.3369 | 1259.7 | 200.1
293.15 K, x1 = 0.3873 | 1266.8 | –
293.15 K, x1 = 0.4868 | 1277.3 | 250
293.15 K, x1 = 0.5637 | 1283.2 | 274.4
293.15 K, x1 = 0.6636 | 1289.1 | 307.4
293.15 K, x1 = 0.7124 | 1291.6 | 322.5
293.15 K, x1 = 0.796 | 1295.2 | 350.7
293.15 K, x1 = 0.9017 | 1298.8 | 387.2
293.15 K, x1 = 0.9456 | 1300.1 | –
298.15 K, x1 = 0.0496 | 1116.9 | 98.7
298.15 K, x1 = 0.1012 | 1173.2 | –
298.15 K, x1 = 0.1415 | 1199 | 132.6
298.15 K, x1 = 0.197 | 1223.4 | –
298.15 K, x1 = 0.2965 | 1248.4 | –
298.15 K, x1 = 0.3369 | 1255.6 | 201.3
298.15 K, x1 = 0.3873 | 1262.7 | –
298.15 K, x1 = 0.4868 | 1273.2 | 251.5
298.15 K, x1 = 0.5637 | 1279.1 | 276.1
298.15 K, x1 = 0.6636 | 1285.1 | 309.4
298.15 K, x1 = 0.7124 | 1287.6 | 324.4
298.15 K, x1 = 0.796 | 1291.2 | 352.9
298.15 K, x1 = 0.9017 | 1294.8 | 389.4
298.15 K, x1 = 0.9456 | 1296.1 | –
303.15 K, x1 = 0.0496 | 1113.8 | 98.9
303.15 K, x1 = 0.1012 | 1169.5 | –
303.15 K, x1 = 0.1415 | 1195.1 | 133.3
303.15 K, x1 = 0.197 | 1219.3 | –
303.15 K, x1 = 0.2965 | 1244.3 | –
303.15 K, x1 = 0.3369 | 1251.5 | 202.7
303.15 K, x1 = 0.3873 | 1258.6 | –
303.15 K, x1 = 0.4868 | 1269.1 | 253.2
303.15 K, x1 = 0.5637 | 1275.1 | 277.8
303.15 K, x1 = 0.6636 | 1281.1 | 311.5
303.15 K, x1 = 0.7124 | 1283.6 | 326.4
303.15 K, x1 = 0.796 | 1287.2 | 355.2
303.15 K, x1 = 0.9017 | 1290.9 | 391.8
303.15 K, x1 = 0.9456 | 1292.2 | –
308.15 K, x1 = 0.0496 | 1110.6 | 99.1
308.15 K, x1 = 0.1012 | 1165.7 | –
308.15 K, x1 = 0.1415 | 1191.2 | 134
308.15 K, x1 = 0.197 | 1215.3 | –
308.15 K, x1 = 0.2965 | 1240.2 | –
308.15 K, x1 = 0.3369 | 1247.4 | 204.1
308.15 K, x1 = 0.3873 | 1254.5 | –
308.15 K, x1 = 0.4868 | 1265.1 | 254.9
308.15 K, x1 = 0.5637 | 1271 | 279.7
308.15 K, x1 = 0.6636 | 1277.1 | 313.7
308.15 K, x1 = 0.7124 | 1279.6 | 328.5
308.15 K, x1 = 0.796 | 1283.2 | 357.6
308.15 K, x1 = 0.9017 | 1286.9 | 394.4
308.15 K, x1 = 0.9456 | 1288.2 | –
313.15 K, x1 = 0.0496 | 1107.3 | 99.4
313.15 K, x1 = 0.1012 | 1161.9 | –
313.15 K, x1 = 0.1415 | 1187.1 | 134.8
313.15 K, x1 = 0.197 | 1211.2 | –
313.15 K, x1 = 0.2965 | 1236 | –
313.15 K, x1 = 0.3369 | 1243.3 | 205.5
313.15 K, x1 = 0.3873 | 1250.4 | –
313.15 K, x1 = 0.4868 | 1261 | 256.7
313.15 K, x1 = 0.5637 | 1267 | 281.7
313.15 K, x1 = 0.6636 | 1273.1 | 316.1
313.15 K, x1 = 0.7124 | 1275.6 | 330.7
313.15 K, x1 = 0.796 | 1279.2 | 360.2
313.15 K, x1 = 0.9017 | 1283 | 397
313.15 K, x1 = 0.9456 | 1284.3 | –
318.15 K, x1 = 0.0496 | 1103.9 | 99.7
318.15 K, x1 = 0.1012 | 1158 | –
318.15 K, x1 = 0.1415 | 1183.1 | 135.7
318.15 K, x1 = 0.197 | 1207 | –
318.15 K, x1 = 0.2965 | 1231.9 | –
318.15 K, x1 = 0.3369 | 1239.1 | 207.1
318.15 K, x1 = 0.3873 | 1246.3 | –
318.15 K, x1 = 0.4868 | 1256.9 | 258.7
318.15 K, x1 = 0.5637 | 1263 | 283.7
318.15 K, x1 = 0.6636 | 1269.1 | 318.6
318.15 K, x1 = 0.7124 | 1271.6 | 333.1
318.15 K, x1 = 0.796 | 1275.3 | 362.9
318.15 K, x1 = 0.9017 | 1279 | 399.9
318.15 K, x1 = 0.9456 | 1280.3 | –

[3]
Conditions | excess molar enthalpy [kcal/mol]
x1 = 0.1007 | 0.157
x1 = 0.1989 | 0.257
x1 = 0.2954 | 0.312
x1 = 0.3944 | 0.332
x1 = 0.4985 | 0.317
x1 = 0.5757 | 0.293
x1 = 0.6624 | 0.245
x1 = 0.8201 | 0.136
